Test results reported in patent US20100240768A1, “NOVEL NUTRACEUTICALCOMPOSITIONS CONTAINING THYMOL AND/OR P-CYMENE OR PLANT EXTRACTS FOR COGNITION” (priority 2007, published 2010).
Like-named read-outs stand apart in the source and are kept apart here.

Legend:
[1] = target: T1, human glycine transporter 1b (GlyT1) (Homo sapiens, UniProt P48067); assay: Inhibition of glycine transporter 1 in a cellular assay ([3H]glycine uptake into CHO cells); format: cell-based; details: for IC50: dose-response curve, internalization of radioactive glycine into the cells, read-out: IC50 (FIG. 1, GlyT1 inhibition assay); for IC50 for tritiated glycine uptake: CHO cells expressing human GlyT1b, pure compounds, mean±s.e.m.
T1 construct: expressed in transfected cells
T1 sequence (P48067 1-652 isoform P48067-3): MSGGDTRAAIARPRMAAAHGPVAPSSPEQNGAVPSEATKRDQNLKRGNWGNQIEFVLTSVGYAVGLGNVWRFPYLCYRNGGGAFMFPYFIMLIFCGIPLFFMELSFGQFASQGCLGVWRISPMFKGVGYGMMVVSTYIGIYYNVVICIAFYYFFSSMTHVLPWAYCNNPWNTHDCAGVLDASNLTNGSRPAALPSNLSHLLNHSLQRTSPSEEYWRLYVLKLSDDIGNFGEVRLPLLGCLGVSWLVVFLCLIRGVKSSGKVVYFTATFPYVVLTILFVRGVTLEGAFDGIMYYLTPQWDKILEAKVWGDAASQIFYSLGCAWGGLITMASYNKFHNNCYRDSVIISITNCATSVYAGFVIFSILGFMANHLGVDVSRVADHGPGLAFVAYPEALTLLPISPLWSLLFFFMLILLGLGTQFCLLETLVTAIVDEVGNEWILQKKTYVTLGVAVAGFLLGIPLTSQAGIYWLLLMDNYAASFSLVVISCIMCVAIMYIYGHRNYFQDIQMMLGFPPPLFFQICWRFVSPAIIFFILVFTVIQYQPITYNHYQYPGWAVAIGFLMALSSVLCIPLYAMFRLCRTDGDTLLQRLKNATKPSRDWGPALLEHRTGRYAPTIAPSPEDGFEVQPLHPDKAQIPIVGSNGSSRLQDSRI
Experimental: Cells were harvested by trypsinisation one day prior to the assay and were seeded in the above mentioned medium. […] Glycine uptake into the cells was determined by addition of 60 nM radio-labelled [^3H] glycine (Amersham Biosciences GE Healthcare, Slough, UK) and incubation for 30 minutes at room temperature. Following removal of unincorporated label by gentle washing three times with the above buffer, incorporated glycine was quantified by liquid scintillation counting. […] Louis, USA) were used as known inhibitors of GlyT1.

pCREB = assay: Hippocampal slice cultures, synaptic marker pCREB (immunohistochemistry); format: cell-based, Wistar rats; details: 15 min treatment of slices after 48 h culture; compared to sister cultures treated with buffer
Experimental: (§1) Seven-day-old Wistar rats were decapitated using a guillotine. In less than 1 minute the skull was opened, the cerebral hemispheres were separated and transferred and both hippocampi were dissected and transferred into ice cold buffer containing 137 mM NaCl, 5 mM KCl, 0.85 mM Na2HPO4, 1.5 mM CaCl2, 0.66 mM KH2PO4, 0.28 mM MgSO4, 1 mM MgCl2, 2.7 mM NaHCO3, 1 mM Kynurenic acid and 0.6% D-glucose.
(§2) Transversal hippocampal slices (400 μm) were prepared using a vibrating blade microtome (VT1200S; Leica Microsystems (Schweiz) AG, Heerbrugg, Switzerland) in the same buffer. Hippocampal slices were individually placed on a membrane insert (Millicell Culture Plate Inserts, 0.4 μm) and cultivated at 35° C., 5% CO2, 95% humidity in a medium containing a 1:1 mixture of BME and MEM (both from Invitrogen) containing 25% heat-inactivated horse serum, 1× GlutaMAX, 1× Penicillin/Streptomycin, 0.6% glucose and 1 mM Kynurenic acid (Stoppini, Buchs and Muller (1991), J. Neurosci. Methods, 37(2), 173-82).
(§3) After 48 h in culture, synaptic NMDA receptors were activated by addition of thyme extract or its constituents for 15 min in 140 mM NaCl, 5 mM KCl, 1.3 mM CaCl2, 25 mM HEPES (pH 7.3), 33 mM D-glucose and 0.02 mM bicuculline methiodide. […] An additional positive control comprised the addition of 200 μM glycine to sister cultures. After the treatments, sections were washed and fixed for immunohistochemistry. Markers of enhanced synaptic activity, normally associated with long-term potentiation, representing an ex vivo model of learning and memory were quantitated (see Table 2, below).
(§4) Table 2. […]. The activation of any of these markers (or a combination thereof) is observed in classical LTP experiments.
(§5) Treatment of hippocampal cultures with thyme extracts as well as with both p-cymene and thymol induced biochemical markers typical for LTP (pCREB: activated form of the cAMP response element binding protein; pMAPK: activated form of the mitogen-activated protein kinase; GLUR1: cell surface presence of AMPA receptor 1).

pMAPK = assay: Hippocampal slice cultures, synaptic marker pMAPK (immunohistochemistry); format: cell-based, Wistar rats; details: 15 min treatment of slices after 48 h culture; compared to sister cultures treated with buffer
Experimental: as §1, §2, §3, §4, §5

adult mice [2] = details: systemic administration, Kinney et al 2003; cited from earlier work
NMDA receptor [3] = details: rat hippocampal slice preparation; Bergeron et al 1998; cited from earlier work
adult mice [4] = details: systemic administration, Kinney et al 2003; cited from earlier work; remark: listed apart in the source
NMDA receptor [5] = details: mouse hippocampal slice preparation; Bergeron et al 1998; cited from earlier work
GluR1 = assay: Hippocampal slice cultures, synaptic marker GluR1 (cell surface AMPA receptor 1); format: cell-based, Wistar rats; details: 15 min treatment of slices after 48 h culture; compared to sister cultures treated with buffer
Experimental: as §1, §2, §3, §4, §5

Compound	IC50 [1]	IC50 for tritiated glycine uptake [1]	pCREB relative activation (pCREB)	pMAPK relative activation (pMAPK)	GluR1 relative activation (symbol) (GluR1)	also measured
CNCC(=O)O [Sarcosine, reference compound]	0.0359 µM					
CN(CCC(Oc1ccc(-c2ccccc2)cc1)c1ccc(F)cc1)CC(=O)O (stereo not shown) [NFPS, N-[3-(4′-fluorophenyl)-3-(4′-phenylphenoxy)]propylsarcosine]						Prepulse inhibition of the acoustic startle response (adult mice [2]): enhanced; NMDA receptor responses in CA1 pyramidal cells (NMDA receptor [3]): enhanced; LTP in the dentate gyrus (adult mice [4]): increased; NMDA receptor responses in CA1 pyramidal cells (NMDA receptor [5]): enhanced
Cc1ccc(C(C)C)cc1 [P-Cymene]		inactive	++	++++	±	

More lines, main results first:

IC50 [1]	IC50 for tritiated glycine uptake [1]	Compound	pCREB relative activation (pCREB)	pMAPK relative activation (pMAPK)	GluR1 relative activation (symbol) (GluR1)	also measured
	inactive	Caryophyllene	±	±		
	inactive	C=CC(C)(O)CCC=C(C)C (stereo not shown) [Linalool]	±	±	±	
13.6 µM		Cc1ccc(C(C)C)c(O)c1 [Thymol]	++++			GluR1 relative activation (GluR1): 250-767%
